The text below walks through data of ChEMBL document CHEMBL1777748 (Bioorg Med Chem Lett, 2011).

The nature of series [1]: Aqueous solubility of the compound in buffer at pH 7.4. The series is classed as physicochemical.
Series [2] can be described thus: Intrinsic clearance in human liver microsomes.
Series [3] deals with T1, Prostaglandin D2 receptor 2 (Homo sapiens, UniProt Q9Y5Y4).
T1 sequence (Q9Y5Y4 whole entry): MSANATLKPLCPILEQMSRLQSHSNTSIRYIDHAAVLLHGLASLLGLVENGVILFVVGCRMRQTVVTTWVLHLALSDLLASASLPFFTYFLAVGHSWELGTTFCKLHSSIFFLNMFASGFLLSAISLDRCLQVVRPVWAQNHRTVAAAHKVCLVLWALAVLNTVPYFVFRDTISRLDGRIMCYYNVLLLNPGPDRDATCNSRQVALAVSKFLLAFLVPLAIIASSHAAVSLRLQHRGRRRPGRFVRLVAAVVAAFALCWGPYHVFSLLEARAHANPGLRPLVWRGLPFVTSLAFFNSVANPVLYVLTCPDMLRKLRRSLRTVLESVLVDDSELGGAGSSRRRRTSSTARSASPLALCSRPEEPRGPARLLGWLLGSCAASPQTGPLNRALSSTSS
Put plainly: Displacement of [3H]-PGD2 from CRTh2 receptor by scintillation proximity assay.

A short description of series [4]: Intrinsic clearance in rat hepatocytes assessed per 1 x 10^6 cells.
Series [5] is described as follows: Oral bioavailability in rat. The conditions noted are these: in vivo. The series is classed as ADME, organism-based.
For series [6], the target named is T1, Prostaglandin D2 receptor 2. Nature of the series: Antagonist activity at human CRTh2 receptor expressed in CHO cells assessed as inhibition of PGD2-induced calcium flux in presence of 1% bovine serum albumin. The series is classed as functional, cell-based. In general terms: Calcium assays in cells follow changes in intracellular calcium, usually with a dye or a luminescent sensor.

Series [7] can be described thus: Half life in iv dosed rat. As to conditions: in vivo.
Series [8] can be described thus: Oral bioavailability in dog. The series is classed as ADME, organism-based, Canis lupus familiaris. The conditions noted are these: in vivo.
Series [9] deals with T2, Chemoattractant receptor-homologous molecule expressed on Th2 cells (Cavia porcellus, UniProt Q56D28).
T2 sequence (Q56D28 whole entry): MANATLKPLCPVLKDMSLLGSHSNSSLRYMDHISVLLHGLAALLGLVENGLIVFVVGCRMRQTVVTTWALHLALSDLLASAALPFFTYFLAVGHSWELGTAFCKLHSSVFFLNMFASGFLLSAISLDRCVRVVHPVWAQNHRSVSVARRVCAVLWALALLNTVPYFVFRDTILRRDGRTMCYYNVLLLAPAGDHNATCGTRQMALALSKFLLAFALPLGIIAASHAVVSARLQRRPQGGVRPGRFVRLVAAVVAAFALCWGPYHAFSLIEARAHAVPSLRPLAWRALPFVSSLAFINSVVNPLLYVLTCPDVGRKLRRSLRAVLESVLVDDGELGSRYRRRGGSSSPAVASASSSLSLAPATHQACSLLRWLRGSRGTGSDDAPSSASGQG
Nature of the series: Binding affinity to guinea pig CRTh2 receptor.

The target in series [10] is T3, Prostaglandin D2 receptor 2 (Mus musculus, UniProt Q9Z2J6).
T3 sequence (Q9Z2J6 whole entry): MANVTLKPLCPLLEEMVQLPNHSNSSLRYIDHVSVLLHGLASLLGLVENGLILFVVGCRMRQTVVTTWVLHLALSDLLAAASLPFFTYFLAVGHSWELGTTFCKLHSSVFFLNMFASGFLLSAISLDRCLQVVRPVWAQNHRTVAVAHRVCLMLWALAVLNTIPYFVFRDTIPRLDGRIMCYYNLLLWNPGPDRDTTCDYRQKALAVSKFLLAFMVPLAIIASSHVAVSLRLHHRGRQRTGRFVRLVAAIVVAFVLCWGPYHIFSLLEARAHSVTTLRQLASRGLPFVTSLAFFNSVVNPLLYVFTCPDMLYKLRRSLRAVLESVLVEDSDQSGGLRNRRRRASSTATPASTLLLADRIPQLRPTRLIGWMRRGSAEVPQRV
Nature of the series: Binding affinity to mouse CRTh2 receptor.

Series [11] is described as follows: Fraction unbound in human plasma. It is filed as ADME, cell-free.
A further series addresses Cytochrome P450 3A4 (Homo sapiens, UniProt P08684). Put plainly: Inhibition of CYP3A4. The series is classed as ADME.
For a further series, the target named is T4, Cytochrome P450 1A2 (Homo sapiens, UniProt P05177).
T4 sequence (P05177 whole entry): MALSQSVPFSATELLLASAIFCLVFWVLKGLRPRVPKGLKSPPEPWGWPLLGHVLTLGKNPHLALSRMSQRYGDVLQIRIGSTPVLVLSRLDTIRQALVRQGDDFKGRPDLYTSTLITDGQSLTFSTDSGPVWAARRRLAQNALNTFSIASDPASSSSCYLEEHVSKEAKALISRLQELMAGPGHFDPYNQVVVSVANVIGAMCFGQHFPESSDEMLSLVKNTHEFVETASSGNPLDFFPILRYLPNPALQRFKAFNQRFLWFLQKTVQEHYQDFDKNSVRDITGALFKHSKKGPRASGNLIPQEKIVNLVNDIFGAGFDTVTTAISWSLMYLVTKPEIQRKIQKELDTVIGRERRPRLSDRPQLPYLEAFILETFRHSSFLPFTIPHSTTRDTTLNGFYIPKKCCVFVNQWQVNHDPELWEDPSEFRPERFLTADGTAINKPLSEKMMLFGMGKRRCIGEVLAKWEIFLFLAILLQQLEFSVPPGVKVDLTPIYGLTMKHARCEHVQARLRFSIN
Nature of the series: Inhibition of CYP1A2. It is filed as ADME.

The nature of series [12]: Fraction unbound in cynomolgus monkey plasma. The series is classed as ADME, cell-free, Macaca fascicularis.
A further series addresses Cytochrome P450 2C9 (Homo sapiens, UniProt P11712). Nature of the series: Inhibition of CYP2C9. It is filed as ADME.
The target in series [13] is T5, Prostaglandin D2 receptor 2 (Rattus norvegicus, UniProt Q6XKD3).
T5 sequence (Q6XKD3 whole entry): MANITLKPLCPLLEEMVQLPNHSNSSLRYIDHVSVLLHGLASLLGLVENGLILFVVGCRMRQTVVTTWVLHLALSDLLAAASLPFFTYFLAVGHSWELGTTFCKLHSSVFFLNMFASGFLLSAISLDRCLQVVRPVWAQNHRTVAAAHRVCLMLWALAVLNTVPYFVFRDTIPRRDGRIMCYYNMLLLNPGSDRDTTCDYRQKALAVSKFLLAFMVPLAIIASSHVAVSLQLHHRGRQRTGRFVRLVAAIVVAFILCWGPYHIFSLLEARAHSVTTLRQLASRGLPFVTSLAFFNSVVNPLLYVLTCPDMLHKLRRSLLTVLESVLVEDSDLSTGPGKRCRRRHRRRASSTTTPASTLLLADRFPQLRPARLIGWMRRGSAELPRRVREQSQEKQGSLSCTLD
Put plainly: Binding affinity to rat CRTh2 receptor.

The target of another series is Cytochrome P450 2D6 (Homo sapiens, UniProt P10635). Nature of the series: Inhibition of CYP2D6. It is filed as ADME.
Another series has as its target Cytochrome P450 2C19 (Homo sapiens, UniProt P33261). Nature of the series: Inhibition of CYP2C19. It is filed as ADME.
The species entered for another series is Mus musculus. Nature of the series: Protection against 11 days tobacco smoke-induced mucosal damage in mouse lung assessed as inhibition of inflammatory cells accumulation. It is filed as functional, organism-based.
A short description of series [14]: Fraction unbound in dog plasma. It is filed as ADME, cell-free, Canis lupus familiaris.
The nature of series [15]: Fraction unbound in rat plasma. The series is classed as ADME, cell-free.

Active and inactive are the calls of the source.

Chain of Cytochrome P450 2C19 (P33261 whole entry): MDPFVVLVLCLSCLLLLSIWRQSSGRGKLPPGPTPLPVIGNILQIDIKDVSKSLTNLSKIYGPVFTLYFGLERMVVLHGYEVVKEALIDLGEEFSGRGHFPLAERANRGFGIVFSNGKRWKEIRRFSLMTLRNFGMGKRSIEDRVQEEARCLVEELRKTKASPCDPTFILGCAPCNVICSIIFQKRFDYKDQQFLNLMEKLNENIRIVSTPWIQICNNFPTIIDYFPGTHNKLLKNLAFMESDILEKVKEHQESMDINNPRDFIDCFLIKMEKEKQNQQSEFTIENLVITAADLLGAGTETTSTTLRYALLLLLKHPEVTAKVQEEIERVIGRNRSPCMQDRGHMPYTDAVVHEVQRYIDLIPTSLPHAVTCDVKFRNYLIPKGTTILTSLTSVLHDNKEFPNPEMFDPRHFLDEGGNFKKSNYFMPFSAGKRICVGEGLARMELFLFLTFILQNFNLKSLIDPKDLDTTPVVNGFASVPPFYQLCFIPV
Chain of Cytochrome P450 2D6 (P10635 whole entry): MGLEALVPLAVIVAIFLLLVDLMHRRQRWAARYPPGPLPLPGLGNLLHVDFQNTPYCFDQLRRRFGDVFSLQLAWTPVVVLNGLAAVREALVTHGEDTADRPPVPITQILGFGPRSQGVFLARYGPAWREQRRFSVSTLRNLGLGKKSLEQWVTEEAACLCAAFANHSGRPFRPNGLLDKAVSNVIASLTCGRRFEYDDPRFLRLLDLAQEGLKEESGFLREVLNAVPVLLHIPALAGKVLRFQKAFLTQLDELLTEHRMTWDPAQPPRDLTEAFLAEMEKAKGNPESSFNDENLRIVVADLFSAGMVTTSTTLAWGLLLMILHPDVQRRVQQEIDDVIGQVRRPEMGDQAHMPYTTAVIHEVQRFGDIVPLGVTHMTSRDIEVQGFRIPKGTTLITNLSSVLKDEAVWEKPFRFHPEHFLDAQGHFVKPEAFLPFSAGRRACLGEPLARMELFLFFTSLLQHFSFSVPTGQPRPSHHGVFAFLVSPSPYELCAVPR
Chain of Cytochrome P450 2C9 (P11712 whole entry): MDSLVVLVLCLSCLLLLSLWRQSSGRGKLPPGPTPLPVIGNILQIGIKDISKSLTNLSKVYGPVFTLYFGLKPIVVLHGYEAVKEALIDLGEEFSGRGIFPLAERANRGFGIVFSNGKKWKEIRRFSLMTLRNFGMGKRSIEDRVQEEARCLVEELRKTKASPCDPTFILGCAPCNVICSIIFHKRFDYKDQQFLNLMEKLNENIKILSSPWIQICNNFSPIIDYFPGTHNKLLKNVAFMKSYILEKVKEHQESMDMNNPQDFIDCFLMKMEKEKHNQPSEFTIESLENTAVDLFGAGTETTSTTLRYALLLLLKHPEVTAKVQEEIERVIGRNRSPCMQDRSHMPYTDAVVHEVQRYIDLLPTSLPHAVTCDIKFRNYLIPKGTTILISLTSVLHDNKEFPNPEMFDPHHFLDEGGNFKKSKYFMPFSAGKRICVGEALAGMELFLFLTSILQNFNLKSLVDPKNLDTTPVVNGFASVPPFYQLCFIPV
Chain of Cytochrome P450 3A4 (P08684 whole entry): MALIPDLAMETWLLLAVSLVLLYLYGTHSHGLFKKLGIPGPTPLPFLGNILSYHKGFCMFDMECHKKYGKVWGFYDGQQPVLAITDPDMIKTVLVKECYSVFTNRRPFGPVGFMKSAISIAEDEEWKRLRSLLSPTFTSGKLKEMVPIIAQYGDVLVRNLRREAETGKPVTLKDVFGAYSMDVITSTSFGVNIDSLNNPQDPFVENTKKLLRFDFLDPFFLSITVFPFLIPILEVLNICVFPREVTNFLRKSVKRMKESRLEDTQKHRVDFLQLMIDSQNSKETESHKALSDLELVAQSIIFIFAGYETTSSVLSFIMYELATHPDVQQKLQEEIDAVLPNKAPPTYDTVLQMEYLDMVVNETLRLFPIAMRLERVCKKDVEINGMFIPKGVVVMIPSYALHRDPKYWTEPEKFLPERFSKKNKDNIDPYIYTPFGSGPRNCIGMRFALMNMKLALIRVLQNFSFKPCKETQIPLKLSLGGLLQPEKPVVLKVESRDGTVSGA

In the case of `O=C(O)COc1ccc(C(F)(F)F)cc1-c1ccccc1`, in series [1], the solubility (commonly the concentration that dissolves in the medium under given conditions) was more than 80 µM. In addition, the microsomal CLint (in general, a measure of how fast metabolising enzymes remove a compound, apart from limits set by blood flow) in series [2] (liver microsomes) was less than 3 µL/min/mg. The IC50 (commonly the point on the concentration scale where inhibition reaches its midpoint) in series [3] was 45 nM. Further, the hepatocyte CLint (as a rule, a measure of how fast metabolising enzymes remove a compound, apart from limits set by blood flow) in series [4] was determined as 3 µL/min/1e6 cells.
Regarding `N#Cc1cccc(-c2cc(Cl)ccc2OCC(=O)O)c1`, in series [2] (microsomes), the intrinsic clearance (microsomal CLint) was less than 3 µL/min/mg. Besides, the bioavailability (commonly dose-corrected exposure relative to a reference, in per cent) in series [5] is 96%. Besides, the IC50 in series [3] came out at 1.7 nM; in series [6] it was 10 nM. For the same molecule, the half-life (as a rule, the time needed for the level to fall by half in the phase considered) in series [7] was 2.3 h. In series [4], this molecule had a hepatocyte CLint of 5 µL/min/1e6 cells.
For `CCS(=O)(=O)c1ccc(-c2cc(C(F)(F)F)ccc2OCC(=O)O)c(C)c1`, the bioavailability in series [8] was 46%; in series [5] it was 42%. Besides, the IC50 in [9] is 63 nM; in series [10], 1 nM; in [3] it was 0.9 nM; on Cytochrome P450 3A4 it was more than 50000 nM; in series [6] it was 29 nM; at Cytochrome P450 1A2, more than 50000 nM. Further, the IC50 against Cytochrome P450 2C9 is more than 50000 nM; in series [13] it was 1.3 nM; against Cytochrome P450 2D6, more than 50000 nM; at Cytochrome P450 2C19, more than 50000 nM. For the same molecule, the fraction unbound (commonly the share of the substance not bound to proteins or other matrix) in [11] was determined as 0.046; in [12], 0.026; in [14], 0.03; in [15], 0.056. In addition, the outcome in the series listed under Mus musculus was Active.
